Laboratory results: patent US20060069132A1, “Azolecarboxamide herbicides” (priority 2004, published 2006)

Experiments:
wheat = assay: Test B postemergence herbicide test; assay type: in vivo, Triticum aestivum; set-up: key to Wheat plant response rating: 0 = no effect, 100 = complete control; conditions: scale 0 (no effect) to 100 (complete control)
Method in brief: (§1)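 Plants grow to 1- to 4-leaf stage (2–18 cm) for postemergence spraying, or to 2-leaf stage for the paddy test. Formulated compound is applied. Greenhouse holding lasts 13–15 days. Response is scored visually relative to controls, 0 no effect to 100 complete control; a dash means no result.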

redroot pigweed = assay: Test A pre-/postemergence herbicide test; assay type: in vivo, Amaranthus retroflexus
Method in brief: (§2)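 Plants are held in greenhouse about ten days after treatment, then compared with untreated controls and scored 0 (no effect) to 100 (complete control). Preemergence dosing is a directed soil spray on sown sandy loam; postemergence dosing is spray to runoff at 2–10 cm height.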

giant foxtail [1] = assay: Test A pre-/postemergence herbicide test; assay type: in vivo, Setaria faberi
Method in brief: as §2

wild oat = assay: Test B postemergence herbicide test; assay type: in vivo, Avena fatua; conditions: scale 0 (no effect) to 100 (complete control)
Method in brief: as §1

ducksalad = assay: Test B flooded paddy test; assay type: in vivo, Heteranthera limosa; conditions: 1000 g ai/ha, visual rating, scale 0 to 100 (0 no effect, 100 complete control), 13 to 15 days
Method in brief: (§3)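 After treating 2-leaf paddy plants or 2–18 cm postemergence plants (1 to 4 leaves) with formulated chemical, researchers kept them in a greenhouse for 13–15 days. Effects were judged visually versus controls: 0 indicates none, 100 total control.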

velvetleaf [2] = assay: Test B pre-/postemergence herbicide test; assay type: in vivo, Abutilon theophrasti
Method in brief: (§4)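 Visual rating, 0 (no effect) to 100 (complete control), versus untreated controls after 13–15 d in greenhouse. Pre- and postemergence applications (postemergence plants 2–18 cm, 1–4 leaves); flooded paddy arm at 2-leaf stage. Compounds in non-phytotoxic solvent plus surfactant.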

large crabgrass [3] = assay: Test A pre-/postemergence herbicide test; assay type: in vivo, Digitaria sanguinalis
Method in brief: as §2

barnyardgrass [4] = assay: Test B pre-/postemergence herbicide test; assay type: in vivo, Echinochloa crus-galli
Method in brief: (§5)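 Flooded paddy rice and barnyardgrass were treated at the 2-leaf stage; upland plantings received compound either on sown seed or on 1- to 4-leaf seedlings. All were kept 13–15 days in a greenhouse and scored visually, 0–100, relative to untreated plants.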

cocklebur = assay: Test B pre-/postemergence herbicide test; assay type: in vivo, Xanthium strumarium
Method in brief: as §5

lambsquarters = assay: Test B pre-/postemergence herbicide test; assay type: in vivo, Chenopodium album
Method in brief: as §4

Surinam grass = assay: Test B pre-/postemergence herbicide test; assay type: in vivo, Urochloa decumbens
Method in brief: as §4

morningglory [5] = assay: Test B pre-/postemergence herbicide test; assay type: in vivo, Ipomoea coccinea
Method in brief: as §5

velvetleaf [6] = assay: Test A pre-/postemergence herbicide test; assay type: in vivo, Abutilon theophrasti
Method in brief: as §2

morningglory [7] = assay: Test A pre-/postemergence herbicide test; assay type: in vivo, Ipomoea spp.
Method in brief: as §2

rice = assay: Test B flooded paddy test; assay type: in vivo, Oryza sativa; conditions: 1000 g ai/ha, visual rating, scale 0 to 100 (0 no effect, 100 complete control), 13 to 15 days
Method in brief: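 Read-out: visual comparison with controls, scored 0 to 100, where 100 means complete control and 0 no effect. Formulated chemicals were applied postemergence to plants 2–18 cm tall (1- to 4-leaf), or to flooded-paddy plants at the 2-leaf stage, then held 13 to 15 days under glass.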

giant foxtail [8] = assay: Test B pre-/postemergence herbicide test; assay type: in vivo, Setaria faberi
Method in brief: as §4

pigweed = assay: Test B pre-/postemergence herbicide test; assay type: in vivo, Amaranthus retroflexus
Method in brief: as §4

corn = assay: Test B pre-/postemergence herbicide test; assay type: in vivo, Zea mays
Method in brief: as §4

blackgrass = assay: Test B postemergence herbicide test; assay type: in vivo, Alopecurus myosuroides; conditions: scale 0 (no effect) to 100 (complete control)
Method in brief: as §3

barnyardgrass [9] = assay: Test A pre-/postemergence herbicide test; assay type: in vivo, Echinochloa crus-galli
Method in brief: as §2

barnyardgrass [10] = assay: Test B flooded paddy test; assay type: in vivo, Echinochloa crus-galli; conditions: 1000 g ai/ha, visual rating, scale 0 to 100 (0 no effect, 100 complete control), 13 to 15 days
Method in brief: as §3

large crabgrass [11] = assay: Test B pre-/postemergence herbicide test; assay type: in vivo, Digitaria sanguinalis
Method in brief: as §4

[12] = system: small flower umbrella sedge; assay: Test B flooded paddy test; assay type: in vivo, Cyperus difformis; conditions: 1000 g ai/ha, visual rating, scale 0 to 100 (0 no effect, 100 complete control), 13 to 15 days
Method in brief: as §3

[13] = Postemergence, 500 g ai/ha, visual rating after 13 to 15 days
[14] = postemergence, 125 g ai/ha, visual rating
[15] = Postemergence, 500 g ai/ha, 0 to 100 scale, 0 no effect, 100 complete control
[16] = Postemergence, 2000 g ai/ha, 0 to 100 scale, 0 no effect, 100 complete control
[17] = Preemergence, 500 g ai/ha, visual rating, 0 to 100 scale (0 no effect, 100 complete control)
[18] = Preemergence, 2000 g ai/ha, visual rating, 0 to 100 scale (0 no effect, 100 complete control)
[19] = 500 g ai/ha, visual rating 0-100, 0 no effect, 100 complete control, preemergence
[20] = Postemergence, 500 g ai/ha, visual rating after 13 to 15 days, scale 0 (no effect) to 100 (complete control)
[21] = postemergence, 125 g ai/ha, visual rating, scale 0 (no effect) to 100 (complete control)
[22] = preemergence, 125 g ai/ha, 0 to 100 scale, 0 is no effect, 100 is complete control

## CC(=NO)c1cc(NC(=O)c2cc(C(C)(C)C)nn2C)ccc1F [Compound 109]
wheat; [13]
  Plant response rating, Wheat: 20
wheat; [14]
  Wheat plant response rating: 10
Redroot pigweed; [15]
  Pigweed plant response rating: 100
Redroot pigweed; [16]
  Plant response rating, Pigweed: 100
Redroot pigweed; [17]
  Pigweed plant response rating: 75
Redroot pigweed; [18]
  Pigweed plant response rating: 100
Giant foxtail [1]; [15]
  Foxtail, Giant plant response rating: 55
Giant foxtail [1]; [16]
  Plant response rating, Foxtail, Giant: 90
Giant foxtail [1]; [17]
  Foxtail, Giant plant response rating: 80
Giant foxtail [1]; [18]
  Foxtail, Giant plant response rating: 90
Wild oat; [13]
  Plant response rating, Oat, Wild: 30
Wild oat; [14]
  Oat, Wild plant response rating: 20
ducksalad
  Ducksalad plant response rating: 90
Velvetleaf [2]; [19]
  Plant response rating, Velvetleaf: 60
Velvetleaf [2]; [20]
  Plant response rating, Velvetleaf: 20
Velvetleaf [2]; [21]
  Velvetleaf plant response rating: 10
Velvetleaf [2]; [22]
  Plant response rating, Velvetleaf: 20
Large crabgrass [3]; [15]
  Crabgrass, Large plant response rating: 20
Large crabgrass [3]; [16]
  Plant response rating, Crabgrass, Large: 55
Large crabgrass [3]; [17]
  Crabgrass, Large plant response rating: 80
Large crabgrass [3]; [18]
  Crabgrass, Large plant response rating: 95
Barnyardgrass [4]; [19]
  Plant response rating, Barnyardgrass: 100
Barnyardgrass [4]; [20]
  Plant response rating, Barnyardgrass: 20
Barnyardgrass [4]; [21]
  Barnyardgrass plant response rating: 10
Barnyardgrass [4]; [22]
  Plant response rating, Barnyardgrass: 80
cocklebur; [19]
  Plant response rating, Cocklebur: 20
cocklebur; [20]
  Plant response rating, Cocklebur: 70
cocklebur; [21]
  Cocklebur plant response rating: 30
cocklebur; [22]
  Plant response rating, Cocklebur: 0
lambsquarters; [19]
  Plant response rating, Lambsquarters: 90
lambsquarters; [20]
  Plant response rating, Lambsquarters: 20
lambsquarters; [21]
  Lambsquarters plant response rating: 10
lambsquarters; [22]
  Plant response rating, Lambsquarters: 20
Surinam grass; [19]
  Plant response rating, Surinam Grass: 80
Surinam grass; [20]
  Plant response rating, Surinam Grass: 20
Surinam grass; [21]
  Surinam Grass plant response rating: 10
Surinam grass; [22]
  Plant response rating, Surinam Grass: 60
Morningglory [5]; [19]
  Plant response rating, Morningglory: 100
Morningglory [5]; [20]
  Plant response rating, Morningglory: 10
Morningglory [5]; [21]
  Morningglory plant response rating: 0
Morningglory [5]; [22]
  Plant response rating, Morningglory: 10
Velvetleaf [6]; [15]
  Velvetleaf plant response rating: 25
Velvetleaf [6]; [16]
  Plant response rating, Velvetleaf: 45
Velvetleaf [6]; [17]
  Velvetleaf plant response rating: 15
Velvetleaf [6]; [18]
  Velvetleaf plant response rating: 25
Morningglory [7]; [15]
  Morningglory plant response rating: 25
Morningglory [7]; [16]
  Plant response rating, Morningglory: 40
Morningglory [7]; [17]
  Morningglory plant response rating: 35
Morningglory [7]; [18]
  Morningglory plant response rating: 45
rice
  Rice plant response rating: 70
Giant foxtail [8]; [19]
  Plant response rating, Foxtail, Giant: 100
Giant foxtail [8]; [20]
  Plant response rating, Foxtail, Giant: 20
Giant foxtail [8]; [21]
  Foxtail, Giant plant response rating: 20
Giant foxtail [8]; [22]
  Plant response rating, Foxtail, Giant: 70
pigweed; [19]
  Plant response rating, Pigweed: 100
pigweed; [20]
  Plant response rating, Pigweed: 70
pigweed; [21]
  Pigweed plant response rating: 20
pigweed; [22]
  Plant response rating, Pigweed: 30
corn; [19]
  Plant response rating, Corn: 10
corn; [20]
  Plant response rating, Corn: 20
corn; [21]
  Corn plant response rating: 10
corn; [22]
  Plant response rating, Corn: 0
blackgrass; [13]
  Plant response rating, Blackgrass: 20
blackgrass; [14]
  Blackgrass plant response rating: 0
Barnyardgrass [9]; [15]
  Barnyardgrass plant response rating: 75
Barnyardgrass [9]; [16]
  Plant response rating, Barnyardgrass: 90
Barnyardgrass [9]; [17]
  Barnyardgrass plant response rating: 85
Barnyardgrass [9]; [18]
  Barnyardgrass plant response rating: 90
Barnyardgrass [10]
  Barnyardgrass plant response rating: 80
Large crabgrass [11]; [19]
  Plant response rating, Crabgrass, Large: 100
Large crabgrass [11]; [20]
  Plant response rating, Crabgrass, Large: 10
Large crabgrass [11]; [21]
  Crabgrass, Large plant response rating: 10
Large crabgrass [11]; [22]
  Plant response rating, Crabgrass, Large: 80
[12]
  Sedge, Umbrella plant response rating: 60
